Test results published in ChEMBL document CHEMBL1201862, “PubChem BioAssay data set” (2004).
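Following 48 hours of exposure in 96-well plates, responses at five concentrations were used to interpolate endpoints linearly. GI50 is the concentration that inhibits growth by half.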 The source made the active and inactive calls. Rule as the data show it: active = GI50 up to about 1.1 µM and inactive = higher.

Experiments:
Assay in all cases: NCI anticancer screen, dose series, 48 h
UO-31 = test system: UO-31
OVCAR-8 = test system: OVCAR-8
SF-295 = test system: SF-295
SF-539 = test system: SF-539
SK-MEL-28 = test system: SK-MEL-28
EKVX = test system: EKVX
SNB-75 = test system: SNB-75
OVCAR-4 = test system: OVCAR-4
MOLT-4 = test system: MOLT-4
OVCAR-5 = test system: OVCAR-5
NCI-H23 = test system: NCI-H23
RXF 393 = test system: RXF 393
SW-620 = test system: SW-620
KM12 = test system: KM12
LOX IMVI = test system: LOX IMVI
CCRF-CEM = test system: CCRF-CEM
IGROV-1 = test system: IGROV-1
K562 = test system: K562
SK-MEL-2 = test system: SK-MEL-2
HCC 2998 = test system: HCC 2998

Measured: GI50

O=C1C=C(C2OC(CO)C(O)C2O)C(=O)N1 (stereo not given)
inactive: UO-31 > 100 µM | OVCAR-8 > 100 µM | SF-295 > 100 µM | SF-539 > 100 µM | SK-MEL-28 > 100 µM | EKVX > 100 µM | SNB-75 > 100 µM | OVCAR-4 > 100 µM | MOLT-4 45.6 µM | OVCAR-5 > 100 µM | NCI-H23 > 100 µM | RXF 393 > 100 µM | SW-620 26 µM | KM12 > 100 µM | LOX IMVI > 100 µM | CCRF-CEM 32.5 µM | IGROV-1 > 100 µM | K562 47.6 µM | SK-MEL-2 > 100 µM | HCC 2998 > 100 µM

CCOC(=O)c1csc(NC(=O)CCN2CCCC2)n1
inactive: UO-31 > 100 µM | OVCAR-8 > 100 µM | SF-295 > 100 µM | SF-539 > 100 µM | SK-MEL-28 > 100 µM | EKVX > 100 µM | SNB-75 > 100 µM | OVCAR-4 > 100 µM | MOLT-4 > 100 µM | OVCAR-5 > 100 µM | NCI-H23 > 100 µM | RXF 393 > 100 µM | SW-620 > 100 µM | KM12 > 100 µM | LOX IMVI > 100 µM | CCRF-CEM > 100 µM | IGROV-1 > 100 µM | K562 > 100 µM | SK-MEL-2 > 100 µM | HCC 2998 > 100 µM

CC(=O)OCc1nnn2c1CCC2
inactive: UO-31 > 100 µM | OVCAR-8 > 100 µM | SF-295 > 100 µM | SF-539 > 100 µM | SK-MEL-28 > 100 µM | EKVX > 100 µM | SNB-75 > 100 µM | OVCAR-4 > 100 µM | MOLT-4 > 100 µM | OVCAR-5 > 100 µM | NCI-H23 > 10 µM | RXF 393 > 100 µM | SW-620 > 100 µM | KM12 > 100 µM | LOX IMVI > 100 µM | CCRF-CEM > 100 µM | IGROV-1 > 100 µM | K562 > 100 µM | SK-MEL-2 > 100 µM | HCC 2998 > 100 µM

C/C(=N\Oc1cc(Cl)ncn1)c1ccccn1
inactive: UO-31 52 µM | OVCAR-8 > 100 µM | SF-295 63 µM | SF-539 29.6 µM | SK-MEL-28 39.5 µM | EKVX 38.5 µM | SNB-75 > 100 µM | OVCAR-4 > 100 µM | MOLT-4 39.2 µM | OVCAR-5 37.8 µM | NCI-H23 34.1 µM | RXF 393 4 µM | SW-620 84.7 µM | KM12 > 100 µM | LOX IMVI 42.3 µM | CCRF-CEM 34.4 µM | IGROV-1 21.9 µM | K562 56.5 µM | SK-MEL-2 14.1 µM | HCC 2998 17.4 µM

COc1ccc(-c2cc3[nH]nc(N)c3c(=O)o2)cc1
inactive: UO-31 > 100 µM | OVCAR-8 > 100 µM | SF-295 > 100 µM | SF-539 > 100 µM | SK-MEL-28 > 100 µM | EKVX 14 µM | SNB-75 97.3 µM | OVCAR-4 > 100 µM | MOLT-4 > 100 µM | OVCAR-5 > 100 µM | NCI-H23 > 100 µM | RXF 393 55.3 µM | SW-620 > 100 µM | KM12 > 100 µM | LOX IMVI > 100 µM | CCRF-CEM > 100 µM | IGROV-1 > 100 µM | K562 > 100 µM | SK-MEL-2 > 100 µM | HCC 2998 > 100 µM

COc1ccc(CN2C(=O)C(=O)N(C)C2=O)c2ccccc12
inactive: UO-31 > 10 µM | OVCAR-8 > 10 µM | SF-295 > 10 µM | SF-539 > 10 µM | SK-MEL-28 > 10 µM | EKVX > 10 µM | SNB-75 > 10 µM | OVCAR-4 > 10 µM | MOLT-4 > 10 µM | OVCAR-5 > 10 µM | NCI-H23 > 10 µM | RXF 393 > 10 µM | SW-620 > 10 µM | KM12 > 10 µM | LOX IMVI > 10 µM | CCRF-CEM > 10 µM | IGROV-1 > 10 µM | K562 > 10 µM | SK-MEL-2 > 10 µM | HCC 2998 > 10 µM
